What was measured:
Test in all cases: relative viability (nuclei count vs DMSO), 5 days (fraction); higher = more cells survive
[1] = compound: C1CC2=C(C1)C=C(C=C2)OC3=NC(=C4C(=N3)N(C=N4)CC5=CC=C(C=C5)C6=CC=CC=C6)N[C@@H](CC7=CC=CC=C7)CO [QS11] + CC(=O)c1c(C)c2cnc(Nc3ccc(N4CCNCC4)cn3)nc2n(C2CCCC2)c1=O [Palbociclib] (partner 0.5 µM)
How it was run: (§1)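 Nuclei were stained with Hoechst during a one-step fixation (final 0.05% Triton X-100, 1% formaldehyde, 1 ug/ml Hoechst) carried out 5 days after dosing, then counted on 4× images. The cells, lung cancer lines in 1536-well plates, had been dosed by pin tool the day after seeding with one drug alone or a fixed anchor-drug dose plus five library-drug doses (not always all listed) in √10 steps. Relative viability is the nuclei count in treated wells divided by that in vehicle wells, and each value is the median of duplicate plates.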

[2] = compound: CC1=C(C=C(C=C1)NC(=O)C2=CC(=CC=C2)C(C)(C)C#N)NC3=CC4=C(C=C3)N=CN(C4=O)C [AZ628] + CC(C)C[C@H](NC(=O)[C@H](Cc1ccccc1)NC(=O)c1cnccn1)B(O)O [Bortezomib] (partner 0.002 µM)
How it was run: as §1

[3] = compound: CC1=C(C=C(C=C1)NC(=O)C2=CC(=CC=C2)C(C)(C)C#N)NC3=CC4=C(C=C3)N=CN(C4=O)C [AZ628] + COc1cc2c(Oc3ccc(NC(=O)C4(C(=O)Nc5ccc(F)cc5)CC4)cc3F)ccnc2cc1OCCCN1CCOCC1 [Foretinib] (partner 0.25 µM)
How it was run: as §1

[4] = compound: CC1=C(C=C(C=C1)NC(=O)C2=CC(=CC=C2)C(C)(C)C#N)NC3=CC4=C(C=C3)N=CN(C4=O)C [AZ628] + CS(=O)(=O)CCNCc1ccc(-c2ccc3ncnc(Nc4ccc(OCc5cccc(F)c5)c(Cl)c4)c3c2)o1 [Lapatinib] (partner 2 µM)
How it was run: as §1

Cell Line | relative viability ([1]; first compound 0.08 µM) | relative viability ([1]; first compound 0.253 µM) | relative viability ([1]; first compound 0.8 µM) | relative viability ([1]; first compound 2.53 µM) | relative viability ([1]; first compound 8 µM) | relative viability ([2]; first compound 0.08 µM) | relative viability ([2]; first compound 0.253 µM) | relative viability ([2]; first compound 0.8 µM) | relative viability ([2]; first compound 2.53 µM) | relative viability ([2]; first compound 8 µM) | relative viability ([3]; first compound 0.08 µM) | relative viability ([3]; first compound 0.253 µM) | relative viability ([3]; first compound 0.8 µM) | relative viability ([3]; first compound 2.53 µM) | relative viability ([3]; first compound 8 µM) | relative viability ([4]; first compound 0.08 µM) | relative viability ([4]; first compound 0.253 µM) | relative viability ([4]; first compound 0.8 µM) | relative viability ([4]; first compound 2.53 µM) | relative viability ([4]; first compound 8 µM)
NCI-H1650 | 0.354 | 0.251 | 0.271 | 0.355 | 0.245 | 0.165 | 0.203 | 0.18 | 0.203 | 0.214 | 1.33 | 1.34 | 1.42 | 1.26 | 1.02 | 1.24 | 0.795 | 0.79 | 0.498 | 0.68
HARA | 0.256 | 0.212 | 0.186 | 0.252 | 0.259 | 1.1 | 1.08 | 1.08 | 1.03 | 0.568 | 0.713 | 0.898 | 0.792 | 0.795 | 0.392 | 0.742 | 0.633 | 0.57 | 0.671 | 0.488
PC-3 [JPC-3] |  | 0.586 | 0.396 | 0.595 | 0.575 | 0.778 | 0.924 | 0.9 | 0.801 | 0.857 | 1.01 | 1.07 | 1.05 | 1.03 | 0.92 | 0.488 | 0.5 | 0.52 | 0.47 | 0.471
ABC-1 | 0.805 | 0.782 | 0.652 | 0.64 | 0.5 | 0.307 | 0.314 | 0.364 | 0.344 | 0.315 | 0.96 | 1.17 | 1.19 | 0.944 | 0.943 | 1.04 | 1.09 | 1.08 | 1.16 | 0.985
NCI-H2126 | 0.345 | 0.381 | 0.341 | 0.343 | 0.304 | 1.16 | 1 | 1.13 | 1.17 | 1.18 | 1.27 | 1.18 | 1.22 | 0.922 | 0.94 | 0.758 | 0.857 | 0.834 | 0.752 | 0.89
BEN | 0.479 | 0.481 | 0.501 | 0.52 | 0.502 | 0.882 | 0.653 | 0.666 | 0.813 | 0.616 | 0.694 | 0.511 | 0.544 | 0.561 | 0.571 | 0.775 | 0.554 | 0.661 | 0.815 | 0.545
HCC-366 | 0.433 | 0.454 |  | 0.162 | 0.0973 | 1.04 | 0.894 | 0.957 | 0.999 | 0.681 | 0.885 | 0.884 | 0.781 | 0.892 | 0.372 | 1.1 | 0.918 | 0.968 | 0.87 | 0.717
HCC-827 | 0.527 | 0.501 | 0.445 | 0.599 | 0.479 | 1.04 | 1.03 | 1.03 | 1.01 | 1.07 | 0.982 | 0.933 | 0.967 | 1.02 | 0.715 | 0.238 | 0.172 | 0.208 | 0.191 | 0.191
NCI-H727 | 0.694 | 0.73 | 0.698 | 0.637 | 0.699 | 0.604 | 0.487 | 0.389 | 0.42 | 0.295 | 0.628 | 0.455 | 0.383 | 0.319 | 0.322 | 0.484 | 0.472 | 0.415 | 0.326 | 0.296
NCI-H1915 | 0.53 | 0.644 |  | 0.5 | 0.486 | 0.939 | 1.02 | 0.771 | 0.598 | 0.716 | 1.23 | 1.1 | 0.987 | 0.89 | 0.59 | 1.05 | 1 | 0.83 | 0.653 | 0.704
NCI-H2347 | 0.375 | 0.476 | 0.414 | 0.4 | 0.354 | 0.859 | 0.962 | 0.721 | 0.828 | 0.623 | 0.697 | 0.81 | 0.704 | 0.976 | 0.407 | 0.8 | 0.89 | 0.902 | 0.836 | 0.457
NCI-H647 | 0.412 | 0.367 | 0.394 | 0.325 | 0.394 | 0.984 | 0.905 | 0.903 | 0.947 | 1.28 | 1.02 | 1.28 | 1.36 | 1.29 | 1.05 | 1.25 | 1.02 | 0.982 | 1.19 | 0.894
CAL-12T | 0.431 | 0.568 | 0.409 | 0.499 | 0.264 | 0.948 |  | 0.747 | 0.835 | 0.779 | 1.16 | 1.05 | 1.13 | 0.994 | 0.559 | 0.884 |  | 0.599 | 0.616 | 0.573

Source: the supplement of paper PMC10307832
